“And” between values parts separate entries of the source, which are not always exact repeats. Equal entries are not always repeated. Inconclusive results and toxic doses are left out. Rule for the calls: active = survival T/C of 150% or more; inactive = T/C below 125% in these data.
Test system: CD2F1 mice, L1210 leukemia ip, survival T/C
Experiment: NCI In Vivo Anticancer Drug Screen. Data for tumor model L1210 Leukemia (intraperitoneal) in CD2F1 (CDF1) mice
Conditions: higher = longer survival
Procedure, shortened: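 Each value reflects a quotient of treated over vehicle control outcomes in mice with a transplanted tumor.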

[1] = endpoint: mean survival time, dose: 100.0 mg/kg/injection, schedule: Q01DX001 (ip), vehicle: Klucel (hydroxypropylcellulose) (HPC)
[2] = endpoint: mean survival time, dose: 200.0 mg/kg/injection, schedule: Q01DX001 (ip), vehicle: Klucel (hydroxypropylcellulose) (HPC)
[3] = endpoint: mean survival time, dose: 100.0 mg/kg/injection, schedule: Q01DX001 (ip), vehicle: saline
[4] = endpoint: mean survival time, dose: 100.0 mg/kg/injection, schedule: Q04DX003 (ip), vehicle: saline
[5] = endpoint: mean survival time, dose: 50.0 mg/kg/injection, schedule: Q01DX009 (ip), vehicle: saline with Tween-80
[6] = endpoint: mean survival time, dose: 25.0 mg/kg/injection, schedule: Q01DX009 (ip), vehicle: saline
[7] = endpoint: mean survival time, dose: 50.0 mg/kg/injection, schedule: Q01DX009 (ip), vehicle: saline
[8] = endpoint: mean survival time, dose: 100.0 mg/kg/injection, schedule: Q01DX009 (ip), vehicle: saline

Measured: T/C

CCCCCCCCCCCCCCCCCCN=C(N)N
inactive: [1] 103 % of control | [2] 96 % of control | endpoint: mean survival time, dose: 400.0 mg/kg/injection, schedule: Q01DX001 (ip), vehicle: Klucel (hydroxypropylcellulose) (HPC) 88 % of control

CC(=O)N(C)N(Cc1ccc(C#N)cc1)C(C)=O
inactive: endpoint: mean survival time, dose: 25.0 mg/kg/injection, schedule: Q01DX009 (ip), vehicle: Klucel (hydroxypropylcellulose) (HPC) 97 % of control | endpoint: mean survival time, dose: 50.0 mg/kg/injection, schedule: Q01DX009 (ip), vehicle: Klucel (hydroxypropylcellulose) (HPC) 93 % of control | endpoint: mean survival time, dose: 100.0 mg/kg/injection, schedule: Q01DX009 (ip), vehicle: Klucel (hydroxypropylcellulose) (HPC) 97 % of control | endpoint: mean survival time, dose: 200.0 mg/kg/injection, schedule: Q01DX009 (ip), vehicle: Klucel (hydroxypropylcellulose) (HPC) 97 % of control | endpoint: mean survival time, dose: 400.0 mg/kg/injection, schedule: Q01DX009 (ip), vehicle: Klucel (hydroxypropylcellulose) (HPC) 98 % of control

O=C(c1ccccc1)C(O)(Cc1ccccc1)c1ccccc1 (stereo not given)
inactive: endpoint: mean survival time, dose: 100.0 mg/kg/injection, schedule: Q04DX003 (ip), vehicle: saline with Tween-80 96 % of control | endpoint: mean survival time, dose: 200.0 mg/kg/injection, schedule: Q04DX003 (ip), vehicle: saline with Tween-80 102 % of control | endpoint: mean survival time, dose: 400.0 mg/kg/injection, schedule: Q04DX003 (ip), vehicle: saline with Tween-80 97 % of control

O=C(Nc1ccccc1)Nc1ccc2c(c1)oc1ccccc12
inactive: endpoint: mean survival time, dose: 50.0 mg/kg/injection, schedule: Q01DX001 (ip), vehicle: Klucel (hydroxypropylcellulose) (HPC) 108 % of control | [1] 97 % of control | endpoint: mean survival time, dose: 100.0 mg/kg/injection, schedule: Q04DX002 (ip), vehicle: saline with Tween-80 95 % of control | [2] 94 % of control | endpoint: mean survival time, dose: 200.0 mg/kg/injection, schedule: Q04DX002 (ip), vehicle: saline with Tween-80 91 % of control | endpoint: mean survival time, dose: 400.0 mg/kg/injection, schedule: Q04DX002 (ip), vehicle: saline with Tween-80 98 % of control

c1cc[n+](C[n+]2ccccc2)cc1
inactive: [3] 101 % of control | [4] 96 % of control | endpoint: mean survival time, dose: 200.0 mg/kg/injection, schedule: Q01DX001 (ip), vehicle: saline 101 % of control | endpoint: mean survival time, dose: 200.0 mg/kg/injection, schedule: Q04DX003 (ip), vehicle: saline 97 % of control | endpoint: mean survival time, dose: 400.0 mg/kg/injection, schedule: Q01DX001 (ip), vehicle: saline 101 % of control | endpoint: mean survival time, dose: 400.0 mg/kg/injection, schedule: Q04DX003 (ip), vehicle: saline 100 % of control

CCOC(=O)/C=C1\NC(=O)N(CCCN2C(=O)N/C(=C\C(=O)OCC)C2=O)C1=O
inactive: endpoint: mean survival time, dose: 3.13 mg/kg/injection, schedule: Q01DX009 (ip), vehicle: saline with Tween-80 95 % of control | endpoint: mean survival time, dose: 6.25 mg/kg/injection, schedule: Q01DX009 (ip), vehicle: saline with Tween-80 98 % of control | endpoint: mean survival time, dose: 12.5 mg/kg/injection, schedule: Q01DX009 (ip), vehicle: saline with Tween-80 95 % of control | [5] 92 % of control

CC(C)NC(=S)S
inactive: [6] 100 % of control | endpoint: mean survival time, dose: 25.0 mg/kg/injection, schedule: Q04DX003 (ip), vehicle: saline 100 % of control | [7] 94 % of control | endpoint: mean survival time, dose: 50.0 mg/kg/injection, schedule: Q04DX003 (ip), vehicle: saline 105 % of control | [8] 109 % of control | [4] 103 % of control

Nc1nc2c(c(=O)[nH]1)N1C(=S)N(c3ccc(C(=O)NC(CCC(=O)O)C(=O)O)cc3)CC1CN2 (stereo not given)
inactive: endpoint: mean survival time, dose: 100.0 mg/kg/injection, schedule: Q01DX001 (ip), vehicle: sodium bicarbonate 104 % of control | endpoint: mean survival time, dose: 200.0 mg/kg/injection, schedule: Q01DX001 (ip), vehicle: sodium bicarbonate 98 % of control | endpoint: mean survival time, dose: 400.0 mg/kg/injection, schedule: Q01DX001 (ip), vehicle: sodium bicarbonate 102 % of control

OCC1OC(n2cnc3c2NC=NC[C@H]3O)CC1O (stereo not given in full)
inactive: endpoint: mean survival time, dose: 0.13 mg/kg/injection, schedule: Q01DX005 (ip), vehicle: water 93 % of control | endpoint: mean survival time, dose: 0.13 mg/kg/injection, schedule: Q01DX009 (ip), vehicle: water 95 % of control | endpoint: mean survival time, dose: 0.2 mg/kg/injection, schedule: Q03HX024 (ip), vehicle: saline with Tween-80 102 % of control | endpoint: mean survival time, dose: 0.25 mg/kg/injection, schedule: Q01DX005 (ip), vehicle: water 108 % of control | endpoint: mean survival time, dose: 0.25 mg/kg/injection, schedule: Q01DX009 (ip), vehicle: water 101 % of control | endpoint: mean survival time, dose: 0.25 mg/kg/injection, schedule: Q04DX002 (ip), vehicle: water 94 % of control | endpoint: mean survival time, dose: 0.25 mg/kg/injection, schedule: Q04DX003 (ip), vehicle: water 99 % of control | endpoint: mean survival time, dose: 0.3 mg/kg/injection, schedule: Q03HX024 (ip), vehicle: saline with Tween-80 101 % of control | endpoint: mean survival time, dose: 0.4 mg/kg/injection, schedule: Q03HX024 (ip), vehicle: saline with Tween-80 115 % of control and 103 % of control | endpoint: mean survival time, dose: 0.5 mg/kg/injection, schedule: Q03HX024 (ip), vehicle: saline with Tween-80 116 % of control | endpoint: mean survival time, dose: 0.5 mg/kg/injection, schedule: Q04DX002 (ip), vehicle: water 101 % of control | endpoint: mean survival time, dose: 0.5 mg/kg/injection, schedule: Q04DX003 (ip), vehicle: water 96 % of control | endpoint: mean survival time, dose: 0.6 mg/kg/injection, schedule: Q03HX024 (ip), vehicle: saline with Tween-80 110 % of control | endpoint: mean survival time, dose: 0.75 mg/kg/injection, schedule: Q03HX024 (ip), vehicle: saline with Tween-80 111 % of control | endpoint: median survival time, dose: 0.1 mg/kg/injection, schedule: Q01DX009 (ip), vehicle: saline 101 % of control | endpoint: median survival time, dose: 0.13 mg/kg/injection, schedule: Q01DX009 (ip), vehicle: saline 102 % of control | endpoint: median survival time, dose: 0.21 mg/kg/injection, schedule: Q01DX009 (ip), vehicle: saline 113 % of control | endpoint: median survival time, dose: 0.25 mg/kg/injection, schedule: Q01DX009 (ip), vehicle: saline 104 % of control and 108 % of control | endpoint: median survival time, dose: 0.25 mg/kg/injection, schedule: Q03HX012 (ip), vehicle: saline 112 % of control | endpoint: median survival time, dose: 0.3 mg/kg/injection, schedule: Q01DX009 (ip), vehicle: saline 104 % of control | endpoint: median survival time, dose: 0.5 mg/kg/injection, schedule: Q01DX009 (ip), vehicle: saline 104 % of control and 110 % of control | endpoint: median survival time, dose: 0.5 mg/kg/injection, schedule: Q03HX012 (ip), vehicle: saline 113 % of control | endpoint: median survival time, dose: 1.0 mg/kg/injection, schedule: Q01DX009 (ip), vehicle: saline 108 % of control | endpoint: median survival time, dose: 2.0 mg/kg/injection, schedule: Q01DX009 (ip), vehicle: saline 102 % of control | endpoint: median survival time, dose: 3.0 mg/kg/injection, schedule: Q01DX005 (ip), vehicle: saline 95 % of control | endpoint: median survival time, dose: 3.0 mg/kg/injection, schedule: Q01DX009 (ip), vehicle: saline 109 % of control | endpoint: median survival time, dose: 4.0 mg/kg/injection, schedule: Q01DX005 (ip), vehicle: saline 100 % of control | endpoint: median survival time, dose: 5.0 mg/kg/injection, schedule: Q01DX005 (ip), vehicle: saline 97 % of control | endpoint: median survival time, dose: 6.0 mg/kg/injection, schedule: Q01DX005 (ip), vehicle: saline 97 % of control | endpoint: median survival time, dose: 7.0 mg/kg/injection, schedule: Q01DX005 (ip), vehicle: saline 104 % of control | endpoint: median survival time, dose: 10.0 mg/kg/injection, schedule: Q01DX009 (ip), vehicle: saline 109 % of control

O=C(Nc1c(Cl)cccc1Cl)Oc1ccc(Br)cc1
inactive: [5] 103 % of control | endpoint: mean survival time, dose: 100.0 mg/kg/injection, schedule: Q01DX009 (ip), vehicle: saline with Tween-80 103 % of control

C=C1C(=O)OC2CCCCC3OC3C12 (stereo not given)
inactive: endpoint: mean survival time, dose: 25.0 mg/kg/injection, schedule: Q01DX001 (ip), vehicle: saline 108 % of control | endpoint: mean survival time, dose: 50.0 mg/kg/injection, schedule: Q01DX001 (ip), vehicle: saline 96 % of control | [3] 91 % of control

Oc1cccc(O)c1
inactive: [7] 98 % of control | [8] 95 % of control | endpoint: mean survival time, dose: 200.0 mg/kg/injection, schedule: Q01DX009 (ip), vehicle: saline 101 % of control

COc1cc(NCC(C)(O)CN2CCCC(C)C2C)c2ncccc2c1 (stereo not given)
inactive: endpoint: mean survival time, dose: 3.12 mg/kg/injection, schedule: Q01DX009 (ip), vehicle: saline 101 % of control | endpoint: mean survival time, dose: 6.25 mg/kg/injection, schedule: Q01DX009 (ip), vehicle: saline 101 % of control | endpoint: mean survival time, dose: 12.5 mg/kg/injection, schedule: Q01DX009 (ip), vehicle: saline 101 % of control | [6] 103 % of control | [7] 102 % of control
